{
  "source": "patent US20120076762A1",
  "about": "“INDUCED PLURIPOTENT STEM CELL GENERATION USING TWO FACTORS AND P53 INACTIVATION” (THE SALK INSTITUTE FOR BIOLOGICAL STUDIES, priority 2009, published 2012)",
  "key": {"[1]": {"test_system": "human primary keratinocytes", "experiment": "Reprogramming of human primary keratinocytes (AP-positive hES-like colonies)", "assay_type": "cell-based", "text": "FIG. 5: Downregulation of p53 activity increases reprogramming efficiency of human somatic cells. (FIG. 5a) Human embryonic fibroblasts were infected with retroviruses encoding Oct4/Sox2/Klf4 (3-F) or Oct4/Sox2/Klf4/c-Myc (4-F) factors in combination with lentiviruses expressing control- or p53-shRNA. Emerging colonies of iPS cells were visualized by immunostaining with anti-Nanog antibody using an ABC method. […] (FIG. 5b) Human primary keratinocytes were co-infected with 4-F and retroviruses expressing GFP or p53-DD. 5×10^4 infected cells were plated on 10-cm dishes and stained for AP activity after 2 weeks. […] Actin was used as a loading control. (FIG. 5c) The bars represent the average number of iPS-like colonies obtained from 10^4 keratinocytes reprogrammed with 3-F or 4-F and retroviruses encoding GFP or p53-DD, in the absence or presence of the p53 agonist Nutlin3a (n=3). iPS-like colonies were scored as having hES-like morphology and positive AP staining. Due to the numerous colonies generated in 4-F p53-DD keratinocytes, quantification was done using 10^4 cells. […]"}, "[2]": {"test_system": "Mouse embryonic fibroblasts (MEFs)", "experiment": "Reprogramming of mouse embryonic fibroblasts to iPS cells (Nanog-positive colonies)", "assay_type": "cell-based", "conditions": "for Effect on reprogramming / Fold increase in reprogramming / Nanog-positive colony formation vs control: 3-F; for Direction and grade of change in reprogramming efficiency (arrows) / Reprogramming efficiency (Nanog-positive colonies / infected cells) / Fold increase in reprogramming / Nanog-positive colony formation vs control: MEFs", "text": "(§1) VSV-G viruses were produced in HEK293T cells. For pMX-based and pMSCV-based retroviruses, vectors were transfected using CaPO4 or lipofectamin, following the manufacturers' directions. One day after transfection, culture medium was changed to new medium. For lentivirus, pBOBI-based^34 or pLVTHM-based^37 vectors were transfected by Lipofectamine™ 2000 (Invitrogen) according to the manufacturer's protocol. Six hours after transfection, the DNA-lipofectamine-complex was removed and the medium was replaced the next day. Two days after transfection, the supernatant containing viruses was collected and filtered through a 0.45 μm filter. Mouse iPS cells were induced as previously described^38,39. Briefly, mouse embryonic fibroblasts (passage 3 to 5) were infected (day 0) with pMX-based retroviruses together with pLVTHM-based lentivirus for shRNAs or pBOBI-based lentivirus for Bcl-2. On day 2, cells were passed onto new gelatin-coated plates. Medium was changed every 2 days. On day 12 to 14, cells were fixed for immunofluorescence study. For the Nutlin3a experiments, cells were treated starting from day 4. Reprogramming of human embryonic fibroblasts (IMR90) was done as previously described^2′^3. Briefly, IMR90 fibroblasts (passage 7 to 9) were infected (day 0) with pMSCV-based retroviruses+pLVTHM-based lentiviruses for p53 shRNA. On day 4 or 5, cells were passed onto feeder MEFs. Medium was changed every day. Around 3 weeks after infection, cells were fixed for immunofluorescence studies. Reprogramming of human primary keratinocytes was carried out essentially as described^6. Cells were co-infected with retroviral supernatants containing 3 or 4 reprogramming factors and p53-DD or GFP at a 1:2 ratio. To assess the reprogramming efficiency, cells were trypsinized 3 days after retroviral infection and 10^4 cells were plated onto 6-cm tissue culture dishes on top of irradiated human foreskin fibroblasts with hES cell medium.\nThe number of Nanog-positive colonies was calculated after immunostaining at d12-14. The total number of Nanog-positive colonies was divided by the number of infected cells. Error numbers indicate s.d. The term “s.d.” refers in the customary sense to standard deviation. The term “s.e.” refers in the customary sense to standard error. Student's t-tests were performed for statistical analysis. p=0.007 (p53-shRNA vs mock, n=4 in each), p=0.0006 (p53−/− vs WT, n=3 in each), p=0.009 (p21-shRNA vs mock, n=4 in each), p=0.0005 (Arf-shRNA vs mock, n=3 in each), p=0.028 (Arf/Ink4a-shRNA vs mock, n=3 in each), p=0.010 (Ctl(solvent) vs Nutlin-3(10 μM), n=3 in each), p=0.045 (3SA/3SA vs WT, n=3 in each), p=0.022 (Bcl-2 vs mock, n=4 in each), and p=0.012 (c-Myc versus mock, n=4 in each)."}, "Arf": {"test_system": "Arf", "experiment": "Arf level after shRNA in MEFs (Western blot)", "assay_type": "cell-based, mouse", "conditions": "lentiviral shRNA, day 4", "text": "FIG. 2: Modulation of p53 activity alters reprogramming efficiency. (FIG. 2a) Fold change in the number of 3-F induced Nanog-positive colonies by Arf shRNA compared to control shRNA (n=3). Protein levels of Arf, Ink4a and α-Tubulin (loading control) on day 4 after infection are shown. (FIG. 2b) Fold change in the number of 3-F induced Nanog-positive colonies by Arf/Ink4a shRNA compared to control shRNA (n=3). Protein levels of Arf, Ink4a and α-Tubulin (loading control) on day 4 after infection are shown. (FIG. 2c) MEFs isolated from wild type (+/+), Mdmx-3SA heterozygous (3SA/+) and homozygous (3SA/3SA) mice were exposed to 5Gy of gamma-irradiation for 4 hours. p21 mRNA levels were analyzed by QPCR. Results were normalized to untreated WT samples for fold induction. (FIG. 2d) 3-F induced Nanog-positive colonies in wild type (+/+) and homozygous (3SA/3SA) mice (n=3).\nCells were washed once in PBS and lysed in 2×SDS-PAGE sample buffer without 2-mercaptoethanol and glycerol. Lysates were briefly sonicated and cleared by centrifugation. The protein concentration was determined by a BCA Protein Assay Kit (Thermo Scientific). Lysates were then mixed with 2-mercaptoethanol, BPB and glycerol, and boiled. Equal amounts of proteins were subjected to SDS-PAGE. […] Quantitative PCR was performed using SYBR® GREEN PCR Master Mix (Applied Biosystems)."}, "p21": {"test_system": "p21", "experiment": "p21 expression after shRNA in MEFs", "assay_type": "cell-based, mouse", "conditions": "lentiviral shRNA", "method": "FIG. 1: Increased generation of iPS cells by blocking p53 and p21. (FIG. 1a) Mouse embryonic fibroblasts (MEFs) were infected by retroviruses encoding 3 transcription factors (Oct4/Sox2/Klf4), 2 factors (Oct4/Sox2), Klf4, c-Myc or GFP. Four days after infection, the protein levels of p53, Arf, and p21 were analyzed by Western Blotting. α-tubulin was used as a loading control. (FIG. 1b) Mouse embryonic fibroblasts (MEFs) were infected by retroviruses encoding three transcription factors (Oct4/Sox2/Klf4) in combination with mock, control shRNA (GFP) and p53 shRNA (#1 and #2). Emerging colonies of iPS cells were visualized by immunostaining with anti-Nanog antibody using an Avidin Biotin Complex (ABC) method. (FIG. 1c) The fold change in the number of Nanog-positive colonies compared to mock (n=4). For all figures in this study, error bars indicate s.d. (FIG. 1d) Effect of Nutlin 3a on the number of Nanog-positive colonies by 3 factors in combination with mock, p53, and p21 shRNA. Cells were treated by Nutlin 3a (0, 3, 10 μM) starting from day 4. […]\nCells were washed once in PBS and lysed in 2×SDS-PAGE sample buffer without 2-mercaptoethanol and glycerol. […] The protein concentration was determined by a BCA Protein Assay Kit (Thermo Scientific). […] Quantitative PCR was performed using SYBR® GREEN PCR Master Mix (Applied Biosystems)."}, "[3]": {"test_system": "human embryonic fibroblasts (HEFs, IMR90)", "experiment": "Reprogramming of human embryonic fibroblasts (Nanog- or Tra1-81-positive colonies)", "assay_type": "cell-based", "text": "as §1, with “.” for “VSV-G viruses were produced in HEK293T cells.”\nThe number of Nanog- or Tral-81-positive colonies was calculated after immunostaining at dl 8-27. No colonies were observed from mock +4-F or 3-F cells in all trials. The total number of colonies was divided by the number of infected cells. Error numbers indicate s.d (n=4)."}, "[4]": {"conditions": "3F (Oct4/Sox2/Klf4), d12-14, error = s.d."}},
  "note": "Marks after values point to notes of the source that are not given here.",
  "data": [
    {"molecule": "COc1ccc(C2=N[C@@H](c3ccc(Cl)cc3)[C@@H](c3ccc(Cl)cc3)N2C(=O)N2CCNC(=O)C2)c(OC(C)C)c1", "note": "[Nutlin3a]", "values": [
      {"measurement": "Effect on reprogramming", "setting": "[1]; 3-F or 4-F p53-DD expressing keratinocytes", "result": "inability of Nutlin3a to reduce reprogramming"},
      {"measurement": "Effect on reprogramming efficiency", "setting": "[1]; human keratinocytes, 3-F or 4-F", "result": "markedly reduced the reprogramming efficiency"},
      {"measurement": "Effect on iPS cell formation", "setting": "[2]; 3-F MEFs with p53 reduced by most effective shRNA, 0, 3, 10 μM from day 4", "result": "dose-dependent decrease"},
      {"measurement": "Effect on reprogramming", "setting": "[2]; p53(+/+) MEFs", "result": "dramatically reduced reprogramming"},
      {"measurement": "Effect on reprogramming", "setting": "[2]; p53-null (−/−) MEFs", "result": "did not have any effects"},
      {"measurement": "Direction and grade of change in reprogramming efficiency (arrows)", "setting": "[2]; 3F, Nutlin-3 10 μM vs solvent", "result": "↓↓"},
      {"measurement": "Reprogramming efficiency (Nanog-positive colonies / infected cells)", "setting": "[2]; 3F, Nutlin-3 10 μM vs solvent, treated from day 4, error = s.d.", "result": "0.007 + 0.008% vs 0.114 + 0.054%"}
    ]},
    {"molecule": "Arf shRNA: shRNA sequence CACCGGAATCCTGGACCAG, SEQ ID NO: 5", "values": [
      {"measurement": "Fold increase in reprogramming / Nanog-positive colony formation vs control", "setting": "[2]", "result": "approximately 2 fold"},
      {"measurement": "Reprogramming efficiency (Nanog-positive colonies / infected cells)", "setting": "[2]; [4]", "result": "0.163 ± 0.013", "unit": "% vs 0.085 + 0.083%"},
      {"measurement": "Direction and grade of change in reprogramming efficiency (arrows)", "setting": "[2]; 3F, vs control", "result": "↑"},
      {"measurement": "Reduction of Arf levels", "setting": "Arf", "result": "2-4 fold"}
    ]},
    {"molecule": "Arf/Ink4a shRNA: shRNA sequence AATGGCTGGATTGTTTAAA, SEQ ID NO: 6", "values": [
      {"measurement": "Reprogramming efficiency (Nanog-positive colonies / infected cells)", "setting": "[2]; [4]", "result": "0.366 ± 0.144", "unit": "% vs 0.114 + 0.054%"},
      {"measurement": "Direction and grade of change in reprogramming efficiency (arrows)", "setting": "[2]; 3F, vs control", "result": "↑↑"}
    ]},
    {"molecule": "p21 shRNA: shRNA sequence TTAGGACTCAACCGTAATA, SEQ ID NO: 4", "values": [
      {"measurement": "Reduction of p21 expression", "setting": "p21", "result": "3-4 fold"},
      {"measurement": "Fold increase in reprogramming / Nanog-positive colony formation vs control", "setting": "[2]", "result": "approximately 3 fold"},
      {"measurement": "Reprogramming efficiency (Nanog-positive colonies / infected cells)", "setting": "[2]; [4]", "result": "0.359 ± 0.144", "unit": "% vs 0.114 + 0.054%"},
      {"measurement": "Direction and grade of change in reprogramming efficiency (arrows)", "setting": "[2]; 3F, vs control", "result": "↑↑↑"}
    ]},
    {"molecule": "p53shRNA: lentiviral shRNA against human p53, sequence GACTCCAGTGGTAATCTAC, SEQ ID NO: 7 (lentiviral vector)", "values": [
      {"measurement": "Actual number of Nanog-positive colonies", "setting": "[3]; 3-F, Trial 1", "result": "10 colonies/3 × 10^4 cells (p53shRNA)"},
      {"measurement": "Actual number of Nanog-positive colonies", "setting": "[3]; 3-F, Trial 2", "result": "2 colonies/1 × 10^4 cells (p53shRNA)"},
      {"measurement": "Reprogramming efficiency of HEFs", "setting": "[3]; 3-F, average of 2 independent experiments", "result": 0.027, "unit": "% *"},
      {"measurement": "Actual number of Nanog-positive colonies", "setting": "[3]; 4-F, Trial 1", "result": "86 colonies/2 × 10^4 cells (p53shRNA)"},
      {"measurement": "Actual number of Nanog-positive colonies", "setting": "[3]; 4-F, Trial 2", "result": "13 colonies/2 × 10^4 cells (p53shRNA)"},
      {"measurement": "Actual number of Nanog-positive colonies", "setting": "[3]; 4-F, Trial 3", "result": "19 colonies/2 × 10^4 cells (p53shRNA)"},
      {"measurement": "Actual number of Nanog-positive colonies", "setting": "[3]; 4-F, Trial 4", "result": "4 colonies/2 × 10^4 cells (p53shRNA)"},
      {"measurement": "Reprogramming efficiency of HEFs", "setting": "[3]; 4-F, ± s.d. (n=4)", "result": "0.153 ± 0.188", "unit": "%"}
    ]}
  ]
}
